Experimental data published in patent publication US11111247B2, “Pyrazolopyrimidine compounds and uses thereof” (Incyte Corporation, priority 2018, dated 2021).
Where two headings read alike, the source gives them in different places.

Assays:
ALK2 (aa 147-end) = ALK2 (aa 147-end) (Homo sapiens (Human), UniProt Q04771); test: ALK2 HTRF Assay; assay type: biochemical
Experimental: The enzymatic assays were conducted in white 384-well polystyrene plates in a final volume of 8 μL. The inhibitors were serially diluted in DMSO and added to the plate wells prior to addition of the other reaction components. The assays were carried out at 25° C. in the assay buffer (50 mM HEPES, pH 7.1, 10% Glycerol, 0.01% Brij50, 10 mM MgCl2, 1 mM EGTA, 5 mM DTT, and 0.01% BSA), containing 50 nM LANCE Ultra ULight™-DNA Topoisomerase 2-alpha peptide (Perkin Elmer TRF0130), and 3 uM, 100 uM or 1 mM ATP (as specified). […] The reaction was read on a PHERAstar FS plate reader (BMG Labtech). IC50 determination was performed by fitting percent control activity versus the log of the inhibitor concentration using the IDBS XLFit and GraphPad Prism 5.0 software.

ALK2 = ALK2 (Homo sapiens (Human), UniProt Q04771); test: ALK2 Cellular Assay (phospho SMAD1 HTRF, BMP-7 stimulated HeLa cells); assay type: cell-based; conditions: read-out: ALK2 Cellular Assay PSMAD
Experimental: HeLa cells were cultured in MEM media with 10% FBS. […] HeLa cells were plated in 96 well flat bottomed plate at 50,000 cells per well and incubated overnight. Next day, media was removed and 50 μL of fresh complete media was added. 5 μL compound was added to cells (3 μM final concentration at highest) and incubated for 60 min at 37° C. 200 ng/ml BMP-7 was added and incubated for 30 min at 37° C. After incubation, the media was removed, washed 2×PBS, and proceeded with HTRF kit according to Cisbio HTRF kit instructions for measuring the Phospho SMAD1 (S463/S465). Finally, both the donor and acceptor were added into 384 well plates and incubated at room temperature overnight and the HTRF signal was measured via Pherastar the next day.

RT112 cells = test: Luminescent Viability Assay (LVA, FGFR3); assay type: cell-based; conditions: Homo sapiens, RT-112, 72 h, 3 days, CellTiter-Glo
Experimental: RT112 cells were purchased from ATCC (Manassas, Va.) and maintained in RPMI, 10% FBS (Gibco/Life Technologies). To measure the effect of test compounds on the viability of cells, the cells were plated with RPMI 10% FBS (5×10^3 cells/well/in 50 μL) into black 96-well Greiner polystyrene in the presence or absence of 50 μl of a concentration range of test compounds. After 3 days, 100 μl of CellTiter-Glo Reagent (Promega) was added. Luminescence was read with a TopCount (PerkinElmer). IC50 determination was performed by fitting the curve of percent inhibition versus the log of the inhibitor concentration using the GraphPad Prism 5.0 software.

FGFR3 (UP) = FGFR3 (UP) (Homo sapiens (Human), UniProt P22607); test: FGFR Enzymatic Assay, FGFR3 un-phosphorylated
FGFR1 (UP) = FGFR1 (UP) (Homo sapiens (Human), UniProt P11362); test: FGFR Enzymatic Assay, FGFR1 un-phosphorylated
Experimental: The inhibitor potency of the exemplified compounds was determined in an enzyme discontinuous assay that measures peptide phosphorylation using FRET measurements to detect product formation. Inhibitors were serially diluted in DMSO and a volume of 0.2 μL was transferred to the wells of a 384-well plate. For the isoforms of FGFR (−1, −2, −3 wild-type and mutant isoforms, −4) including phosphorylated (P) and un-phosphorylated (UP) proteins, a 5 μL/well volume of enzyme diluted in assay buffer (50 mM HEPES, 10 mM MgCl2, 1 mM EGTA, 0.01% Tween-20, 5 mM DTT, pH 7.5) was added to the plate and pre-incubated with inhibitor for 5 to 15 minutes at ambient temperature. Appropriate controls (enzyme blank and enzyme with no inhibitor) were included on the plate. The reaction was initiated by the addition of a 5 μL/well volume containing both biotinylated [sequence] […] The plate was allowed to equilibrate for −10 minutes at ambient temperature before scanning on a PheraStar plate reader (BMG Labtech) instrument.
Either GraphPad prism or XLfit was used to analyze the data. The IC50 values were derived by fitting the data to a four parameter logistic equation producing a sigmoidal dose-response curve with a variable Hill coefficient. Prism equation: Y=Bottom+(Top−Bottom)/(1+10^((LogIC50−X)*Hill slope)); XLfit equation: Y=(A+((B−A)/(1+((X/C)^D)))) where X is the logarithm of inhibitor concentration and Y is the response.

FGFR2 (P) = FGFR2 (P) (Homo sapiens (Human), UniProt P21802); test: FGFR Enzymatic Assay, FGFR2 phosphorylated; conditions: phosphorylated enzyme, ATP near or below Km
[1] = read-out: ALK2 3 μM IC50, 3 uM ATP
[2] = read-out: ALK2 100 μM IC50, 100 uM ATP
[3] = HeLa cells, 200 ng/ml BMP-7, Phospho SMAD1 (S463/S465) HTRF
[4] = read-out: FGFR3 (UP) IC50, un-phosphorylated enzyme, ATP near or below Km
[5] = read-out: ALK2 1 mM IC50, 1 mM ATP
[6] = read-out: FGFR1 (UP) IC50, un-phosphorylated enzyme, ATP near or below Km

Sequence of FGFR2 (P) (P21802 22-821): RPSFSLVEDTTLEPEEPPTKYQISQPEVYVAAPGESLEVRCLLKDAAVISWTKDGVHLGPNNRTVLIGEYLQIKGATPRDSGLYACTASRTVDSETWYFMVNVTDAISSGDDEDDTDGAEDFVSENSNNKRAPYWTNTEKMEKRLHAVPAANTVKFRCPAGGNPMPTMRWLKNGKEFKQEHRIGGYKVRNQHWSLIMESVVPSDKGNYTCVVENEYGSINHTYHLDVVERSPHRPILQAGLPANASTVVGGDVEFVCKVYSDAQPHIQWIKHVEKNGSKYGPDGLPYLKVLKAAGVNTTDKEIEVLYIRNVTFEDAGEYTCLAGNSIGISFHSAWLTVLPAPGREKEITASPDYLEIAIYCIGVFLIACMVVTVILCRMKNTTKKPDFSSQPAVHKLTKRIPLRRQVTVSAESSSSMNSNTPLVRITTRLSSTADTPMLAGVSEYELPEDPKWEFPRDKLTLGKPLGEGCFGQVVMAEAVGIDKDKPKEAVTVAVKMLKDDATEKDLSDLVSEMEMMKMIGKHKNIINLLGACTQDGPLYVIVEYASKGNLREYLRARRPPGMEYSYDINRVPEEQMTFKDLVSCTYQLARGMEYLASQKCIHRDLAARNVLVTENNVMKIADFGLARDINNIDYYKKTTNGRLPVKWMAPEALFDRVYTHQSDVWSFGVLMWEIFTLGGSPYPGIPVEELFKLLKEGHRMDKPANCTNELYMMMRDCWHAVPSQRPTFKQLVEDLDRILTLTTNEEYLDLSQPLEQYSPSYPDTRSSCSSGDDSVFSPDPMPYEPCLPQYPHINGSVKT
Sequence of FGFR3 (UP) (P22607 23-806): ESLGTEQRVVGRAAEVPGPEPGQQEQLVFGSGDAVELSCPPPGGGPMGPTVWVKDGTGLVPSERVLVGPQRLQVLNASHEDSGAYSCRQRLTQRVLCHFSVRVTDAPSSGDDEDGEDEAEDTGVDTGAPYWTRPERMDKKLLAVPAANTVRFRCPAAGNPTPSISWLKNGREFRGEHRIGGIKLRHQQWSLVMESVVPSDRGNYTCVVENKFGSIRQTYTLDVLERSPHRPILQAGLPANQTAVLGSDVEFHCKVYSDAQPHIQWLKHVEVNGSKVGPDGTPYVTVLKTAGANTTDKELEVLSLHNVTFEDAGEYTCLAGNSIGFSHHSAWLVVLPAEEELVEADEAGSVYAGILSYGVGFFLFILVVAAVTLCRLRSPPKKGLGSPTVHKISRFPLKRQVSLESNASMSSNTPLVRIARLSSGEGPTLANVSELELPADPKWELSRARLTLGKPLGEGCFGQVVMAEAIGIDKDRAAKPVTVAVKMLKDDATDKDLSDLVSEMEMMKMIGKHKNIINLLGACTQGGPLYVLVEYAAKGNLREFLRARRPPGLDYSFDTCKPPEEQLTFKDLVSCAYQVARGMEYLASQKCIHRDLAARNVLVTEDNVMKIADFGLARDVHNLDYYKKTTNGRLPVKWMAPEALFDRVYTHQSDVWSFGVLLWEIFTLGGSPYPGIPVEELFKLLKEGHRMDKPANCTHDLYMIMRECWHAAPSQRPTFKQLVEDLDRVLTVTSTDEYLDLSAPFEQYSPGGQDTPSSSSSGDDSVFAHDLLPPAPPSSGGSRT
Sequence of ALK2 (aa 147-end) (Q04771 147-509): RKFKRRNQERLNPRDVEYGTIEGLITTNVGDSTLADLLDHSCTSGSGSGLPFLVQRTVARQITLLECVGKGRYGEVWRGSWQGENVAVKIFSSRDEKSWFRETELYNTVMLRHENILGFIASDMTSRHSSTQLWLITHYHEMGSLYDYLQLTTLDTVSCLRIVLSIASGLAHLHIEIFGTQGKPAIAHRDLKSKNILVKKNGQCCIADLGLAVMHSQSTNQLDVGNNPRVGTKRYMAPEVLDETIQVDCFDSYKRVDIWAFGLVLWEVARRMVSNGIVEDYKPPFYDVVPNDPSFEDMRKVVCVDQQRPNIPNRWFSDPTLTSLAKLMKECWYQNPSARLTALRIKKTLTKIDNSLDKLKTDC
Sequence of FGFR1 (UP) (P11362 22-822): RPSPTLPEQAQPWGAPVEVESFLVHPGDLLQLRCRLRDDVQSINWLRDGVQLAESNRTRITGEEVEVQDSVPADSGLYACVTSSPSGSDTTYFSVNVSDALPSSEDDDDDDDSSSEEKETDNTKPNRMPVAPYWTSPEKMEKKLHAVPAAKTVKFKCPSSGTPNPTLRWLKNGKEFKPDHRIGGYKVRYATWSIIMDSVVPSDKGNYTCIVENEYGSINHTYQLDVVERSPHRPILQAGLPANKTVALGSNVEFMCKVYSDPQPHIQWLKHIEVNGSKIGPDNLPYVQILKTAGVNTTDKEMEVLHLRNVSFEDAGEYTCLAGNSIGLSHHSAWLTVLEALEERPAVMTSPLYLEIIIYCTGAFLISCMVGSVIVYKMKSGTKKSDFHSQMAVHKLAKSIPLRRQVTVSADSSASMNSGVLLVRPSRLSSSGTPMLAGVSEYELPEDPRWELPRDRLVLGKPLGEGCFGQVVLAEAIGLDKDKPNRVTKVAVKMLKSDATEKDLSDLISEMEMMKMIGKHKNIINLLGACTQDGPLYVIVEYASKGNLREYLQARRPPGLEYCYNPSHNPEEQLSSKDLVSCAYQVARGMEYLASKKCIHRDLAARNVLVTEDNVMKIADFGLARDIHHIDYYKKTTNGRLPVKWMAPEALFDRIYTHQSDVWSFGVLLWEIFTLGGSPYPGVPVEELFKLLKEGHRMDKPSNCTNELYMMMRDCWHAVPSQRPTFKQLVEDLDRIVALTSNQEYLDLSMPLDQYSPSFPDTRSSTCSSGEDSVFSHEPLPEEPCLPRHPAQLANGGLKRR
Sequence of ALK2 (Q04771 21-509): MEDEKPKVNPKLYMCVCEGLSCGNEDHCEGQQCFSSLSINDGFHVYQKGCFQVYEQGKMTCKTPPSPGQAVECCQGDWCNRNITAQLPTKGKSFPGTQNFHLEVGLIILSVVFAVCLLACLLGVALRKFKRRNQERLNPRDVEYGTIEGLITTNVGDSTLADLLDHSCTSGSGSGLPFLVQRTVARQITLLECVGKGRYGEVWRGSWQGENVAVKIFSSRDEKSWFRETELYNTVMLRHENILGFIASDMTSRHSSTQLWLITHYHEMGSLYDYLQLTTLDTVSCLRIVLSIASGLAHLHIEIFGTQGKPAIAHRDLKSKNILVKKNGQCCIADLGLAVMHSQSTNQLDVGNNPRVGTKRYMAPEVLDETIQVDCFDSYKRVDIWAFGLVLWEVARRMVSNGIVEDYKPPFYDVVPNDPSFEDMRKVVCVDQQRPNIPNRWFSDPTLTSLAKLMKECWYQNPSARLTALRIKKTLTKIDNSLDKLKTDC

Row | IC50 (ALK2 (aa 147-end); [1]) | IC50 (ALK2 (aa 147-end); [2]) | IC50 (ALK2; [3]) | IC50 (FGFR3 (UP); [4]) | IC50 (FGFR1 (UP)) | IC50 (ALK2 (aa 147-end); ALK2 1 mM IC50, 1 mM ATP) | IC50 (FGFR2 (P); FGFR2 (P) IC50 (nM)) | IC50 (FGFR3 (UP)) | IC50 (ALK2 (aa 147-end); [5]) | IC50 (ALK2 (aa 147-end); ALK2 100 μM IC50, 100 uM ATP) | SMILES | IC50 (RT112 cells) | IC50 (FGFR2 (P); read-out: FGFR2 (P) IC50) | IC50 (FGFR1 (UP); [6]) | IC50 (ALK2)
1 | < 100 nM | < 100 nM | 100 to 500 nM | – | – | – | – | – | – | – | CCN1CCN(c2ccc(-c3n[nH]c4cnc(N5[C@H](C)CN(C(=O)OC)C[C@@H]5C)nc34)cc2C)CC1 [Example 25, Methyl (3R,5S)-4-(3-(4-(4-ethylpiperazin-1-yl)-3-methylphenyl)-1H-pyrazolo[4,3-d]pyrimidin-5-yl)-3,5-dimethylpiperazine-1-carboxylate] | – | – | – | –
2 | – | – | – | < 100 nM | 100 to 500 nM | – | – | – | – | – | CC1C(=O)N(CC(F)F)CCN1c1ncc2[nH]nc(-c3cnn(C)c3)c2n1 (stereo not shown) [Example 46, 1-(2,2-Difluoroethyl)-3-methyl-4-(3-(1-methyl-1H-pyrazol-4-yl)-1H-pyrazolo[4,3-d]pyrimidin-5-yl)piperazin-2-one] | 100 to 500 nM | < 100 nM | – | –
3 | < 100 nM | – | 100 to 500 nM | – | – | 100 to 500 nM | – | – | – | – | COC(=O)N1C[C@@H](C)N(c2ncc3[nH]nc(-c4ccc(N5CCN6C[C@@H](O)C[C@@H]6C5)cc4)c3n2)[C@@H](C)C1 [Example 35, Methyl (3R,5S)-4-(3-(4-((7S,8aR)-7-hydroxyhexahydropyrrolo[1,2-a]pyrazin-2(1H)-yl)phenyl)-1H-pyrazolo[4,3-d]pyrimidin-5-yl)-3,5-dimethylpiperazine-1-carboxylate] | – | – | – | –
4 | – | – | – | < 100 nM | 500 to 2000 nM | – | 100 to 500 nM | – | – | – | CC(C)N1CCN(c2ncc3[nH]nc(-c4cnn(C)c4)c3n2)C(C)C1=O (stereo not shown) [Example 47, 1-Isopropyl-3-methyl-4-(3-(1-methyl-1H-pyrazol-4-yl)-1H-pyrazolo[4,3-d]pyrimidin-5-yl)piperazin-2-one] | 500 to 2000 nM | – | – | –
5 | < 100 nM | < 100 nM | 100 to 500 nM | – | 100 to 500 nM | 100 to 500 nM | 100 to 500 nM | 100 to 500 nM | – | – | C[C@@H]1CN(c2ccc(-c3n[nH]c4cnc(N5CCc6c(ncn6C)C5)nc34)cn2)CCN1 [Example 18, (R)-5-(1-Methyl-1,4,6,7-tetrahydro-5H-imidazo[4,5-c]pyridin-5-yl)-3-(6-(3-methylpiperazin-1-yl)pyridin-3-yl)-1H-pyrazolo[4,3-d]pyrimidine] | – | – | – | –
6 | < 100 nM | – | 500 to 2000 nM | > 2000 nM | – | 100 to 500 nM | – | – | – | 100 to 500 nM | CC(C)C(=O)N1C[C@@H](C)N(c2ncc3[nH]nc(-c4ccc(N5CCN[C@H](C)C5)nc4)c3n2)[C@@H](C)C1 [Example 5, 1-((3R,5S)-3,5-Dimethyl-4-(3-(6-((R)-3-methylpiperazin-1-yl)pyridin-3-yl)-1H-pyrazolo[4,3-d]pyrimidin-5-yl)piperazin-1-yl)-2-methylpropan-1-one] | – | > 2000 nM | > 2000 nM | –
7 | < 100 nM | < 100 nM | 100 to 500 nM | – | – | – | – | – | < 100 nM | – | C[C@@H]1CN(c2ccc(-c3n[nH]c4cnc(N5[C@H](C)CN(C(=O)N(C)C)C[C@@H]5C)nc34)cn2)CCN1 [Example 8, (3R,5S)—N,N,3,5-tetramethyl-4-(3-(6-((R)-3-methylpiperazin-1-yl)pyridin-3-yl)-1H-pyrazolo[4,3-d]pyrimidin-5-yl)piperazine-1-carboxamide] | – | – | – | –
8 | < 100 nM | < 100 nM | 100 to 500 nM | < 100 nM | 100 to 500 nM | – | – | – | < 100 nM | – | C[C@@H]1CN(c2ccc(-c3n[nH]c4cnc(N5[C@H](C)CCC[C@@H]5C)nc34)cn2)CCN1 [Example 1, 5-((2R,6S)-2,6-Dimethylpiperidin-1-yl)-3-(6-((R)-3-methylpiperazin-1-yl)pyridin-3-yl)-1H-pyrazolo[4,3-d]pyrimidine] | – | < 100 nM | – | –
9 | < 100 nM | < 100 nM | < 100 nM | – | – | – | – | – | < 100 nM | – | COC(=O)N1C[C@@H](C)N(c2ncc3[nH]nc(-c4ccc(N5CCN(C)CC5)cc4)c3n2)[C@@H](C)C1 [Example 22, Methyl (3R,5S)-3,5-dimethyl-4-(3-(4-(4-methylpiperazin-1-yl)phenyl)-1H-pyrazolo[4,3-d]pyrimidin-5-yl)piperazine-1-carboxylate] | – | – | – | –
10 | < 100 nM | – | 100 to 500 nM | < 100 nM | 100 to 500 nM | 500 to 2000 nM | 100 to 500 nM | – | – | 100 to 500 nM | C[C@@H]1CN(c2ccc(-c3n[nH]c4cnc(N5[C@H](C)COC[C@@H]5C)nc34)cn2)CCN1 [Example 2, (3R,5S)-3,5-Dimethyl-4-(3-(6-((R)-3-methylpiperazin-1-yl)pyridin-3-yl)-1H-pyrazolo[4,3-d]pyrimidin-5-yl)morpholine] | – | – | – | –
11 | < 100 nM | – | 100 to 500 nM | – | 500 to 2000 nM | 100 to 500 nM | 500 to 2000 nM | 500 to 2000 nM | – | 100 to 500 nM | CC(C)NC(=O)N1C[C@@H](C)N(c2ncc3[nH]nc(-c4ccc(N5CCN[C@H](C)C5)nc4)c3n2)[C@@H](C)C1 [Example 7, (3R,5S)—N-isopropyl-3,5-dimethyl-4-(3-(6-((R)-3-methylpiperazin-1-yl)pyridin-3-yl)-1H-pyrazolo[4,3-d]pyrimidin-5-yl)piperazine-1-carboxamide] | – | – | – | –
12 | < 100 nM | < 100 nM | 100 to 500 nM | – | 500 to 2000 nM | 100 to 500 nM | 100 to 500 nM | 100 to 500 nM | – | – | Cc1cnc2n1CCN(c1ncc3[nH]nc(-c4ccc(N5CCN[C@H](C)C5)nc4)c3n1)C2 [Example 19, (R)-5-(3-Methyl-5,6-dihydroimidazo[1,2-a]pyrazin-7(8H)-yl)-3-(6-(3-methylpiperazin-1-yl)pyridin-3-yl)-1H-pyrazolo[4,3-d]pyrimidine] | – | – | – | –
13 | < 100 nM | – | 100 to 500 nM | – | – | 100 to 500 nM | – | – | – | – | COC(=O)N1C[C@@H](C)N(c2ncc3[nH]nc(-c4ccc(C5CCN(C)C5)cc4)c3n2)[C@@H](C)C1 (stereo partly drawn) [Example 27, Methyl (3R,5S)-3,5-dimethyl-4-(3-(4-(1-methylpyrrolidin-3-yl)phenyl)-1H-pyrazolo[4,3-d]pyrimidin-5-yl)piperazine-1-carboxylate] | – | – | – | –

Row | SMILES | IC50 (ALK2 (aa 147-end); [1]) | IC50 (ALK2 (aa 147-end); [2]) | IC50 (ALK2; [3]) | IC50 (FGFR3 (UP); [4]) | IC50 (FGFR1 (UP)) | IC50 (ALK2 (aa 147-end); ALK2 1 mM IC50, 1 mM ATP) | IC50 (FGFR2 (P); FGFR2 (P) IC50 (nM)) | IC50 (FGFR3 (UP)) | IC50 (ALK2 (aa 147-end); [5]) | IC50 (ALK2 (aa 147-end); ALK2 100 μM IC50, 100 uM ATP) | IC50 (RT112 cells) | IC50 (FGFR2 (P); read-out: FGFR2 (P) IC50) | IC50 (FGFR1 (UP); [6]) | IC50 (ALK2)
14 | CN1CC2CCC(C1=O)N2c1ncc2[nH]nc(-c3cnn(-c4cncc(C#N)c4)c3)c2n1 (stereo not shown) [Example 73, 5-(4-(5-(3-Methyl-2-oxo-3,8-diazabicyclo[3.2.1]octan-8-yl)-1H-pyrazolo[4,3-d]pyrimidin-3-yl)-1H-pyrazol-1-yl)nicotinonitrile] | – | – | – | < 100 nM | 100 to 500 nM | – | – | – | – | – | 500 to 2000 nM | < 100 nM | – | –
15 | C[C@@H]1CN(c2ccc(-c3n[nH]c4cnc(N5[C@@H]6CCC[C@H]5[C@@H](O)C6)nc34)cn2)CCN1 [Example 4, (1R,5S,6S)-8-(3-(6-((R)-3-Methylpiperazin-1-yl)pyridin-3-yl)-1H-pyrazolo[4,3-d]pyrimidin-5-yl)-8-azabicyclo[3.2.1]octan-6-ol] | < 100 nM | < 100 nM | 100 to 500 nM | < 100 nM | 100 to 500 nM | – | – | – | < 100 nM | – | – | < 100 nM | – | –
16 | C[C@@H]1CN(c2ccc(-c3n[nH]c4cnc(N5[C@@H]6CC[C@H]5CN(c5ccc(C#N)cc5)C6)nc34)cn2)CCN1 [Example 15, 4-((1R,5S)-8-(3-(6-((R)-3-Methylpiperazin-1-yl)pyridin-3-yl)-1H-pyrazolo[4,3-d]pyrimidin-5-yl)-3,8-diazabicyclo[3.2.1]octan-3-yl)benzonitrile] | < 100 nM | – | – | > 2000 nM | – | 500 to 2000 nM | – | – | – | 100 to 500 nM | – | > 2000 nM | > 2000 nM | 500 to 2000 nM
